# Tests used:
# human BACE-1 = human BACE-1 (Homo sapiens, UniProt P56817); test: Test 1: Inhibition of human BACE-1; format: biochemical; conditions: recombinant BACE-1, pH 4.5, fluorescence-quenched APP-derived peptide substrate
# Description: Test 1: Inhibition of Human BACE-1
# IC50 values are calculated from percentage of inhibition of BACE-1 activity as a function of the test compound concentration.
# [1] = tested on: cellular release of amyloid peptide 1-40; test: Test 4: Inhibition of cellular release of amyloid peptide 1-40; format: cell-based; conditions: Cricetulus griseus, Chinese hamster ovary cells transfected with the gene for amyloid precursor protein, 24 hours with compound, amyloid peptide 1-40 in supernatant, read-out: Bace IC50
# Description: Test 4: Inhibition of Cellular Release of Amyloid Peptide 1-40
# Chinese hamster ovary cells are transfected with the gene for amyloid precursor protein. The cells are plated at a density of 8000 cells/well into 96-well microtiter plates and cultivated for 24 hours in DMEM cell culture medium containing 10% FCS. The test compound is added to the cells at various concentrations, and the cells are cultivated for 24 hours in the presence of the test compound. The supernatants are collected, and the concentration of amyloid peptide 1-40 is determined using state of the art immunoassay techniques, for example sandwich ELISA, homogenous time-resolved fluorescence (HTRF) immunoassay, or electro-chemiluminescence immunoassay. The potency of the compound is calculated from the percentage of inhibition of amyloid peptide release as a function of the test compound concentration.
# Chain of human BACE-1 (P56817 46-457 limits assumed): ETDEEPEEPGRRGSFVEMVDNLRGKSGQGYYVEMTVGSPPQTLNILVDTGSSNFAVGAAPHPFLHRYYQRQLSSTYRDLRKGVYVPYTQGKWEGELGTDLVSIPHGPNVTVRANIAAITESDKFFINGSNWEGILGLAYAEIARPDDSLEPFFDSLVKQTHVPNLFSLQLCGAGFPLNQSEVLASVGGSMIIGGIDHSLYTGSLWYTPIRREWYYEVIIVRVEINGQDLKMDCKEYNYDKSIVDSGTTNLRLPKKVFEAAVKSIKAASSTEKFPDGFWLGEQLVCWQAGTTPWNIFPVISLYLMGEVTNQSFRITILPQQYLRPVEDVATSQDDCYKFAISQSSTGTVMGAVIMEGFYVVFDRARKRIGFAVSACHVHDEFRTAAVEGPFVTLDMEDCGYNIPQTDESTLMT
IC50 (human BACE-1) [nM],IC50 [1] [nM],SMILES
23,44,"CC(=O)N1CC(N)=NC(c2cc(NC(=O)c3ncc(OC(F)F)cc3C)ccc2F)(C(F)F)C1 (stereo not shown) [Example 26, 5-Difluoromethoxy-3-methyl-pyridine-2-carboxylic acid [3-(4-acetyl-6-amino-2-difluoromethyl-2,3,4,5-tetrahydro-pyrazin-2-yl)-4-fluoro-phenyl]-amide]"
220,860,"NC1=N[C@@](c2cc(NC(=O)c3ncc(=O)[nH]c3N)ccc2F)(C(F)F)CNC1 [Example 29, 3-Amino-5-oxo-4,5-dihydro-pyrazine-2-carboxylic acid [3-((R)-6-amino-2-difluoromethyl-2,3,4,5-tetrahydro-pyrazin-2-yl)-4-fluoro-phenyl]-amide]"

# Reference: patent US20150322038A1, “PYRAZINE DERIVATIVES AND THEIR USE IN THE TREATMENT OF NEUROLOGICAL DISORDERS” (NOVARTIS AG, priority 2009, published 2015)
